According to publication PMC12686243, “Synthesis and preclinical evaluation of FAP-targeting radiotracers for PET and optical imaging” (EJNMMI Radiopharmacy and Chemistry, 2025):

Legend:
[1] = target: T1, human recombinant dipeptidylpeptidase IV (Homo sapiens, UniProt P27487); assay: fluorometric enzyme inhibition assay for DPPIV; format: biochemical
T1 construct: purchased Cayman Chemical
Protocol: The affinity towards DPPIV was determined using a commercially available inhibitor screening assay kit (Cayman Chemical, USA). The assay was performed according to the manufacturer’s instructions, and the data was analyzed as described above.

[2] = test system: hFAP-HT1080 and WT-HT1080 xenografts; assay: in vivo fluorescence imaging of xenograft-bearing mice; set-up: species or system nude mice
From the text: Female athymic NMRI-nude mice (Rj:NMRI-Foxn1nu, Janvier Labs, France or Charles River, Germany) between 8 and 20 weeks of age were used. Subsequently, the prepared cells (1.0–2.0 × 10^6 hFAP/WT-HT1080 per animal) were subcutaneously injected into the right and left thigh, respectively. Xenograft tissue for real-time binding experiments was derived from animals injected with both target-positive and negative cells, however only showing growth of one tumor entity. When approaching endpoints, mice were anesthetized and euthanized. The tumor was quickly removed, frozen in − 45 °C 2-methylbutane and stored in sealed tubes at − 80 °C.
Optical imaging was performed using a multimodal IVIS-CT (Perkin Elmer, USA). Compounds were injected [0.09 mg/kg (n = 1)/0.33 mg/kg (n = 3) for NODAGA-FAP647; 0.17 mg/kg (n = 3) for NODAGA-FAP800, diluted in 150 µL of sterile 0.9% NaCl solution] into the lateral tail vein, either directly or via catheter. Fluorescence imaging started ~ 2 min post injection for 2–3 h, with 1 min, 3–5 min and 10 min intervals, along with a white-light image. Additional scans were performed after 24 h and, if applicable, later. The fluorescence of the respective fluorophore was captured (NODAGA-FAP647: λEx/Em = 640/680 nm, NODAGA-FAP800: λEx/Em = 745/800 nm). Emitted fluorescence intensity was analyzed (Perkin Elmer, Living Image 4.7.4) in raw data images.

[3] = target: T2, hFAPα, recombinant protein (Homo sapiens, UniProt Q12884); assay: fluorometric enzyme inhibition assay for FAP; format: biochemical; details: Morrison equation for tight binding inhibitors; substrate Ala-Pro-AMC; mean ± SD
T2 construct: purchased
T2 sequence (Q12884 1-760): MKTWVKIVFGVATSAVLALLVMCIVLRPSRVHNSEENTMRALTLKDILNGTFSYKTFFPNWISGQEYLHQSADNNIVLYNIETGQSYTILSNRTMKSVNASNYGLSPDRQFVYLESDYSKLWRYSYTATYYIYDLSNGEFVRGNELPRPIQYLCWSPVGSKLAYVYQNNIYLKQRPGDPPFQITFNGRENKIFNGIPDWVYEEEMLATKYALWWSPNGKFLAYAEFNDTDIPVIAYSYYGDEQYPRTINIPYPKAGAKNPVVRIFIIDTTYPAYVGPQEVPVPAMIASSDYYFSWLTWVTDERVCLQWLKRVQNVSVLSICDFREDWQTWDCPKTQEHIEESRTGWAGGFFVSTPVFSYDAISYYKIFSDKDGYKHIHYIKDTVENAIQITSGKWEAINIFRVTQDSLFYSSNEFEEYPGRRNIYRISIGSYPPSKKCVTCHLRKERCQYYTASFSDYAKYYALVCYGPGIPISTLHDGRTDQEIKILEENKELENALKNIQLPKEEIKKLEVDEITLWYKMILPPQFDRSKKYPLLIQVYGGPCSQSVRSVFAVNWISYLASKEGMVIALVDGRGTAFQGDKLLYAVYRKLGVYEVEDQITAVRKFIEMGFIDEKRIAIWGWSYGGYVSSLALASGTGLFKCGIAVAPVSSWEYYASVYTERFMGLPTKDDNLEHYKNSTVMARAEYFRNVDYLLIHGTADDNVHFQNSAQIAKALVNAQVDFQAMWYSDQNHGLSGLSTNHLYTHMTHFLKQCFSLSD
Protocol: Affinity towards FAP was tested using a commercially available fluorometric assay. At the day of the experiment, all tested compounds were diluted in assay buffer (DPP assay buffer, BPS Bioscience, San Diego, CA, USA,) in a 1:1 dilution series, resulting in eleven concentrations, ranging from 2000 nM to 1.950 nM, equal to 200 nM to 0.195 nM per well. The substrate Ala-Pro-AMC (BPS Bioscience, concentration per well: 5 μM, Km = 244 μM (Edosada et al. [2006])) was pipetted along with the inhibitor into a 96-well plate. Subsequently, the enzyme (hFAPα, recombinant protein) was dissolved in assay buffer and added to the wells. The final concentration of DMSO per well was 0.2%. The 96-well plate was immediately loaded into a multimode plate reader (Biotek Cytation 5, Agilent, Santa Clara, CA, USA). The fluorescence intensity for each well was measured over a time course of 30 min with measurement intervals of 15 s, an excitation wavelength of 360 ± 20 nm and an emission wavelength of 450 ± 20 nm. Data (relative fluorescence units, RFU) over the total measurement time was analyzed by linear regression. The slope of the resulting graphs was analyzed over the inhibitor concentration. The enzyme inhibition constant Ki was calculated using the Morrison equation for tight binding inhibitors (Williams and Morrison [1979]). […]

WT-HT1080 cells = assay: fluorescence microscopy of cellular binding and uptake; format: cell-based, human; details: 1 µM, 37 °C, up to 4 h
Protocol: WT/hFAP-HT1080 cells were seeded in an 18-chamber slide with 10,000 cells/well and cultured overnight. The medium was discarded and replaced by medium containing 1 µM of NODAGA-FAP647. The cells were then further incubated at 37 °C and 5% CO2. The binding of the ligand was stopped at the indicated time points by discarding the media and washing the cells twice with ice-cold PBS. The cells were then quickly fixed with 4% PFA/2.5% saccharose in PBS at 20 °C for 20 min. Following the fixation, cells were incubated with a 1:200 dilution of WGA-CF488A (Biotium #29022–1) in PBS to stain the cell membranes. Finally, the cell nuclei were stained with Hoechst33258 (Sigma #94403) diluted 5 µg/ml in PBS for 30 min at 20 °C. Cells were visualized with the Fluoview 1000 confocal laser scanning microscope (Olympus) using a 100 × oil immersion objective. Three representative images were captured for each well.

T1 sequence (P27487 whole entry): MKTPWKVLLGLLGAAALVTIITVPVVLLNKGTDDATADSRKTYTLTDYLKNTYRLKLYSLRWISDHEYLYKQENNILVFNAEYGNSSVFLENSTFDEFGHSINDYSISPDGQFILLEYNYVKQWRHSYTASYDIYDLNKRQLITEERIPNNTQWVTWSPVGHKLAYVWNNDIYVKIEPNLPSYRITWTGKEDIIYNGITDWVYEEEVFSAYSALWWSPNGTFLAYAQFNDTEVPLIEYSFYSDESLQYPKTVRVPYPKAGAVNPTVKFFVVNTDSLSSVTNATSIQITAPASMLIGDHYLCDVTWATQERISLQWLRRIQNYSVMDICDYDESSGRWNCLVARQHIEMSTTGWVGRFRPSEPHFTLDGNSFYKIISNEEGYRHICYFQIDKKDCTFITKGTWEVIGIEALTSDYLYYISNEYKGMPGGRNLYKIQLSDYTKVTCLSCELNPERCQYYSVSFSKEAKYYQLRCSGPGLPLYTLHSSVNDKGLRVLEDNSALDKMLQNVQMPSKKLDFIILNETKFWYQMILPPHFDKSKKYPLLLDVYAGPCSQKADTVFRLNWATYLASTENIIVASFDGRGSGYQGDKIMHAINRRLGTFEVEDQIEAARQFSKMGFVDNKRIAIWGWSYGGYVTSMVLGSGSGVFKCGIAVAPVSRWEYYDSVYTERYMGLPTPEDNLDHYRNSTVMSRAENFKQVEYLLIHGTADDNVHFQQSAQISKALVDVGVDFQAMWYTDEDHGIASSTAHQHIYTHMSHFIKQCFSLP

Which IC50 [1] does the source give for CN(CCCN1CCN(C(=O)[C@H](CCCCNC(=O)CC[C@H](C(=O)O)N2CCN(CC(=O)O)CCN(CC(=O)O)CC2)NC(=O)CCOCCOCCOCCOCCNC(=O)CCCCCC2(C)C(/C=C/C=C/C=C3/N(CCCS(=O)(=O)O)c4ccc(S(=O)(=O)O)cc4C3(C)C)=[N+](CCCS(=O)(=O)O)c3ccc(S(=O)(=O)[O-])cc32)CC1)c1ccc2nccc(C(=O)NCC(=O)N3CC(F)(F)C[C@H]3C#N)c2c1 (stereo partly drawn) [NODAGA-FAP647] here?
The IC50 was > 10000 nM.

What about the “ratio hFAP-HT1080/muscle fluorescence” value ([2]; 120 min post injection) of the same molecule?
The value was 3.5.

What about the “ratio hFAP/WT-HT1080 tumor fluorescence” value ([2]; 120 min post injection) of the same molecule?
Its value is 2.5.

What about the “fluorescence in hFAP-HT1080 tumor higher than in WT-HT1080 tumor or muscle” value ([2]; 24 h post injection) of the same molecule?
The value was “roughly 60%”.

What about the “reduction of fluorescence signal in hFAP-HT1080 tumor” value ([2]; after 24 h post injection) of the same molecule?
The value was 59%.

And the “WT-HT1080 to muscle ratio” value ([2]; over the imaging period)?
The value was “close to one”.

And the “time to plateau of fluorescence in hFAP-HT1080 tumor” value ([2]; post injection)?
Its value is ~ 10 min.

What about the Ki [3] of the same molecule?
The Ki was 0.237 ± 0.064 nM.

What about the “binding or uptake in WT-HT1080 cells” value (WT-HT1080 cells) of the same molecule?
The value was “did not show any binding or uptake”.
